The text below walks through data of patent US11453674B2, “Heterocyclic compound, preparation method and use thereof in medicine” (SUZHOU SINOVENT PHARMACEUTICALS CO., LTD., priority 2019, dated 2022).

Molecules are shown by their SMILES.

The data set addresses T1, CYP2C9 (Homo sapiens, UniProt P11712).
T1 construct: from tissue
Put plainly: Inhibitory effect on CYP2C9 enzyme in microsomes (diclofenac probe). In kind it is in vitro ADME. As to conditions: microsomes 0.25 mg/mL, diclofenac 10 μM; IC50 higher than that of benzbromarone. How it is done:
Example 27: Evaluating the Inhibitory Effects of Compounds on CYP2C9 Enzyme
The assay was performed in 100 mM phosphate buffer in a total volume of 200 μL. The microsome concentration in the reaction system was 0.25 mg/mL, the concentrations of the test compounds were 10, 3.33, 1.11, 0.37, 0.12, 0.04 and 0 μM, the CYP2C9-specific probe substrate and the concentration were diclofenac (10 μM). The mixture was pre-incubated in a 37° C. thermostatic oscillator for 5 min, and a NADPH-generating system (containing 1.3 mM NADP^+, 3.3 mM D(+)-glucopyranose-6-phosphate, […] glucose-6-phosphate dehydrogenase, 3.3 mM MgCl2) was added to start the reaction. After incubation for 10 min, the reaction was terminated by adding an equal volume of acetonitrile. The mixture was vortexed and centrifuged at 13,000 rpm. The resulting supernatant was loaded to LC-MS-MS to determine the content of metabolites. The metabolite of diclofenac specifically obtained by CYP2C9 metabolism pathway is 4-hydroxydiclofenac. Sulfaphenazole was adopted as a specific CYP2C9 inhibitor. In the experiment, analysis was performed by GraphPad Primsm 5.0 to calculate the half maximal inhibitory concentration (IC50 value).

T1 sequence (P11712 whole entry): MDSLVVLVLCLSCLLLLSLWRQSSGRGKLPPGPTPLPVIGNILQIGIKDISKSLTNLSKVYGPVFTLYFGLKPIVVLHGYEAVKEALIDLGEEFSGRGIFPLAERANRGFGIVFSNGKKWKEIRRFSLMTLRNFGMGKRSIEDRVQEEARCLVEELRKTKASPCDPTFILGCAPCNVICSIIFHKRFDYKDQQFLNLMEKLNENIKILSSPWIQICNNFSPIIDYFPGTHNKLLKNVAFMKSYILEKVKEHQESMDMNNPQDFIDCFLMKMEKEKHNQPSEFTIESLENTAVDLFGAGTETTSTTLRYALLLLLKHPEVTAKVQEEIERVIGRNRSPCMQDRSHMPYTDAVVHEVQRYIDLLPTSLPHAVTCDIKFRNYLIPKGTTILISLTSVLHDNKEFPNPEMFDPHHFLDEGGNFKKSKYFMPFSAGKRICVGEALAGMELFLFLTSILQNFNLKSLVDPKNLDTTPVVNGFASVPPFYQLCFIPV

Regarding `CCc1nc2ncccn2c1C(=O)c1cc(Br)c(O)c(Br)c1` [Example 20, 2,6-dibromo-4-([2-ethylimidazo[1,2-a]pyrimidin-3-yl]carbonyl) phenol], the “inhibitory effect on CYP enzymes (CYP2C9)” value (“inhibitory effect” below) is on record as “very low or no inhibitory effect”.

As to `CCc1nc2ncc(F)cn2c1C(=O)c1cc(Br)c(O)c(Br)c1` [Example 4, (3,5-dibromo-4-hydroxyphenyl)(2-ethyl-6-fluoroimidazo[1,2-a]pyrimidin-3-yl)methanone], the “inhibitory effect” value was “very low or no inhibitory effect”.

On to `CCc1nc2cc(Cl)ncn2c1C(=O)c1cc(Br)c(O)c(Br)c1` [Example 21, (7-chloro-2-ethylimidazo[1,2-f]pyrimidin-3-yl)(3,5-dibromo-4-hydroxyphenyl)methanone], for which the “inhibitory effect” value is given as “very low or no inhibitory effect”.

With `CCc1nc2ncc(C(F)(F)F)cn2c1C(=O)c1cc(Br)c(O)c(Br)c1` [Example 5, (3,5-dibromo-4-hydroxyphenyl)(2-ethyl-6-(trifluoromethyl)imidazo[1,2-a]pyrimidin-3-yl)methanone], the “inhibitory effect” value is reported as “very low or no inhibitory effect”.

As for `CCc1nc2ncc(F)cn2c1C(=O)c1cc(Br)c(O)c(C#N)c1` [Example 14, 3-bromo-5-(2-ethyl-6-fluoroimidazo[1,2-a]pyrimidine-3-carbonyl)-2-hydroxybenzonitrile], the “inhibitory effect” value was “very low or no inhibitory effect”.
